Columns and labels:
DLD1 NRF2-WT [1] = assay: TC50 cytotoxicity; higher = less toxic; conditions: 72 h; CellTox Green cytotoxicity
Method in brief: (§1)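 After growth in DMEM with 10% FBS, NRF2 wild-type and CRISPR-edited isogenic DLD1 cells were seeded in 384-well plates and given library compounds at 5 concentrations across a 10,000-fold range. Fluorescence from CellTox Green was taken on a Pherastar FS reader after 72 h and normalised against vehicle wells and 100-μM positive-control wells. From logistic dose-response fits of cytotoxicity came the TC50 and the drug sensitivity score, a normalised area under the curve.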

DLD1 NRF2-GOF [2] = assay: TC50 cytotoxicity; higher = less toxic; conditions: 72 h; CellTox Green cytotoxicity
Method in brief: as §1

DLD1 NRF2-WT [3] = conditions: 72 h; CellTiter-Glo viability
Method in brief: (§2)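 EC50 and drug sensitivity score, the latter a normalised area under the curve, were calculated from logistic dose-response fits. The fits had four parameters and used CellTiter-Glo viability data read on a Pherastar FS reader 72 h after treatment, normalised to vehicle wells and 100-μM positive-control wells. Treated cells were isogenic DLD1 colorectal cancer cells, NRF2 wild-type or CRISPR gain-of-function, exposed in 384-well plates to library compounds at 5 concentrations spanning a 10,000-fold range.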

DLD1 NRF2-GOF [4] = conditions: 72 h; CellTiter-Glo viability
Method in brief: as §2

DLD1 NRF2-WT [5] = assay: drug sensitivity score (DSS) viability (DSS score); higher = more sensitive; extreme values may be limits of the assay; conditions: 72 h; CellTiter-Glo viability
Method in brief: as §2

DLD1 NRF2-GOF [6] = assay: as above; conditions: 72 h; CellTiter-Glo viability
Method in brief: as §2

DLD1 NRF2-WT [7] = assay: drug sensitivity score (DSS) cytotoxicity (DSS score); higher = more toxic; extreme values may be limits of the assay; conditions: 72 h; CellTox Green cytotoxicity
Method in brief: as §1

DLD1 NRF2-GOF [8] = assay: as above; conditions: 72 h; CellTox Green cytotoxicity
Method in brief: as §1

SMILES	TC50 cytotoxicity (DLD1 NRF2-WT [1])	TC50 cytotoxicity (DLD1 NRF2-GOF [2])	EC50 viability (DLD1 NRF2-WT [3])	EC50 viability (DLD1 NRF2-GOF [4])	drug sensitivity score (DLD1 NRF2-WT [5])	drug sensitivity score (DLD1 NRF2-GOF [6])	drug sensitivity score (DLD1 NRF2-WT [7])	drug sensitivity score (DLD1 NRF2-GOF [8])
C=CC[C@@H]1/C=C(\C)C[C@H](C)C[C@H](OC)[C@H]2O[C@@](O)(C(=O)C(=O)N3CCCC[C@H]3C(=O)O[C@H](/C(C)=C/[C@@H]3CC[C@@H](O)[C@H](OC)C3)[C@H](C)[C@@H](O)CC1=O)[C@H](C)C[C@@H]2OC [Tacrolimus]	> 10 µM	> 10 µM	0.933 µM	0.844 µM	4.5	5	0	0
COc1cc(NS(C)(=O)=O)ccc1Nc1c2ccccc2nc2ccccc12 [Amsacrine]	> 10 µM	> 10 µM	2.4 µM	1.22 µM	4.4	6.2	0.7	0
CN1CCN(CCOc2cc(OC3CCOCC3)c3c(Nc4c(Cl)ccc5c4OCO5)ncnc3c2)CC1 [Saracatinib]	> 10 µM	> 10 µM	2.48 µM	> 10 µM	2.4	0.3	0.7	0.1
COc1cc2c(Oc3ccc(NC(=O)C4(C(=O)Nc5ccc(F)cc5)CC4)cc3F)ccnc2cc1OCCCN1CCOCC1 [Foretinib]	0.28 µM	0.267 µM	0.414 µM	0.361 µM	2.1	3.3	3.2	6.3
CC(=O)c1cnc2ccc(-c3cc(Cl)c(O)c(Cl)c3)nc2c1N[C@H]1CC[C@H](CN(C)C)CC1 [OTS167]	> 1 µM	> 1 µM	0.0707 µM	0.0545 µM	12.8	13	0.6	3
Cc1ccc(NS(=O)(=O)c2cccc(C#N)c2)c2[nH]cc(C#N)c12 [E7820]	> 50 µM	> 50 µM	0.531 µM	0.202 µM	15.3	22.9	0	0
Cn1ncc(Cl)c1-c1cc(C(=O)N[C@H](CN)Cc2ccc(F)c(F)c2)oc1Cl [Uprosertib]	> 10 µM	> 10 µM	> 10 µM	> 10 µM	3.4	0	0	0
CC(=O)O[C@H]1C(=O)[C@@]2(C)[C@H]([C@H](OC(=O)c3ccccc3)[C@]3(O)C[C@H](OC(=O)[C@H](O)[C@@H](NC(=O)c4ccccc4)c4ccccc4)C(C)=C1C3(C)C)[C@]1(OC(C)=O)CO[C@@H]1C[C@@H]2O [Paclitaxel]	0.0174 µM	> 1 µM	0.0032 µM	0.0039 µM	24.1	24	10.5	4.7
Cc1cccc(-c2nn3c(c2-c2ccnc4ccc(C(N)=O)cc24)CCC3)n1 [Galunisertib]	> 1 µM	> 1 µM	> 1 µM	0.163 µM	1.6	2.6	0	0
CC(C)C[C@H](NC(=O)[C@H](CCc1ccccc1)NC(=O)CN1CCOCC1)C(=O)N[C@@H](Cc1ccccc1)C(=O)N[C@@H](CC(C)C)C(=O)[C@@]1(C)CO1 [Carfilzomib]	0.0061 µM	0.0143 µM	0.0065 µM	0.0075 µM	26.6	25.8	26.9	22.3
CCN(CC)CCCC(C)Nc1c2ccc(Cl)cc2nc2ccc(OC)cc12 (stereo not drawn) [Mepacrine]	5.03 µM	7.07 µM	1.21 µM	1.51 µM	19.4	18.2	11.7	9.9
COc1cccc2c1C(=O)c1c(O)c3c(c(O)c1C2=O)C[C@@](O)(/C(CO)=N/NC(=O)CCCCCN1C(=O)C=CC1=O)C[C@@H]3O[C@H]1C[C@H](N)[C@H](O)[C@H](C)O1 [Aldoxorubicin]	> 1 µM	> 1 µM	0.137 µM	0.149 µM	8.5	7.6	0	0
COC12C(COC(N)=O)C3=C(C(=O)C(C)=C(N)C3=O)N1CC1NC12 (stereo in doubt) [Mitomycin C]	> 10 µM	> 10 µM	> 10 µM	1.7 µM	0	4	0	0
CC(=O)O[C@]1(C(C)=O)CC[C@H]2[C@@H]3C=C(C)C4=CC(=O)CC[C@]4(C)[C@H]3CC[C@@]21C [Megestrol acetate]	> 10 µM	> 10 µM	> 10 µM	> 10 µM	0	2.4	0	0
O=C(/C=C/c1cccc(S(=O)(=O)Nc2ccccc2)c1)NO [Belinostat]	1.53 µM	> 10 µM	1.1 µM	1.26 µM	9.9	7.1	2.6	0
CCCS(=O)(=O)Nc1ccc(F)c(C(=O)c2c[nH]c3ncc(-c4ccc(Cl)cc4)cc23)c1F [Vemurafenib]	> 10 µM	> 10 µM	> 10 µM	> 10 µM	0.2	0	0	0
Cc1ncc(-c2ccnc(Nc3ccc(S(C)(=O)=O)cc3)n2)n1C(C)C [AZD-5438]	> 10 µM	> 10 µM	1.02 µM	1.44 µM	10.8	8.7	0.5	1.9
CC(C)NC(=O)COc1cccc(-c2nc(Nc3ccc4[nH]ncc4c3)c3ccccc3n2)c1 [KD025]	> 5 µM	> 5 µM	2.28 µM	0.0429 µM	1.8	5.4	0	0
Nc1ncnc2c1c(-c1cccc(OCc3ccccc3)c1)cn2[C@H]1C[C@@H](CN2CCC2)C1 [NVP-AEW541]	> 10 µM	> 10 µM	1.77 µM	3.12 µM	6.8	5	0.1	1.5
CON(C)C(=O)N1N=C(c2cc(F)ccc2F)S[C@@]1(CCCN)c1ccccc1 [Filanesib]	> 1 µM	> 1 µM	0.0064 µM	0.0046 µM	21.5	18.6	5.3	6.2
CCN1CCN(c2ccc(Nc3cc(N(C)C(=O)Nc4c(Cl)c(OC)cc(OC)c4Cl)ncn3)cc2)CC1 [NVP-BGJ398]	> 1 µM	> 1 µM	> 1 µM	> 1 µM	0	0	0	0

SMILES	TC50 cytotoxicity (DLD1 NRF2-WT [1])	TC50 cytotoxicity (DLD1 NRF2-GOF [2])	EC50 viability (DLD1 NRF2-WT [3])	EC50 viability (DLD1 NRF2-GOF [4])	drug sensitivity score (DLD1 NRF2-WT [5])	drug sensitivity score (DLD1 NRF2-GOF [6])	drug sensitivity score (DLD1 NRF2-WT [7])	drug sensitivity score (DLD1 NRF2-GOF [8])
COc1cc(Nc2ncc3c(n2)-c2ccc(Cl)cc2C(c2c(F)cccc2OC)=NC3)ccc1C(=O)O [Alisertib]	0.939 µM	0.205 µM	0.0279 µM	0.0478 µM	10.3	15.9	2.8	6.6
COc1cc(N2CCN(C)CC2)ccc1Nc1nccc(-c2cn(C)c3cnccc23)n1 [AZ191]	> 10 µM	> 10 µM	1.59 µM	1.78 µM	7	5.2	0.3	0
Cc1ccc(=O)n(-c2ccccc2)c1 [Pirfenidone]	> 10 µM	> 10 µM	> 10 µM	> 10 µM	0	0	0	0
Nc1ncnc2c1nc(Cl)n2[C@@H]1O[C@H](CO)[C@@H](O)[C@H]1O [8-chloro-adenosine]	> 50 µM	> 50 µM	1.15 µM	1.31 µM	16.6	15.2	0	0.2
C=CCn1c(=O)c2cnc(Nc3ccc(N4CCN(C)CC4)cc3)nc2n1-c1cccc(C(C)(C)O)n1 [AZD1775]	1 µM	0.171 µM	0.353 µM	0.143 µM	14.5	16.9	5.7	6.1
CCCCOc1nc(N)c2c(n1)N(Cc1cccc(CN3CCCC3)c1)CC(=O)N2 [Vesatolimod]	> 10 µM	> 10 µM	> 10 µM	> 10 µM	0	0.1	0	0
COC(=O)c1ccc2c(c1)NC(=O)/C2=C(\Nc1ccc(N(C)C(=O)CN2CCN(C)CC2)cc1)c1ccccc1 [Nintedanib]	> 10 µM	> 10 µM	> 10 µM	> 10 µM	0.5	0	0.5	0
COc1c(OCCCN2CCOCC2)ccc2c1N=C(NC(=O)c1cnc(N)nc1)N1CCN=C21 [Copanlisib]	> 1 µM	> 1 µM	0.0664 µM	0.199 µM	8.1	2.9	0.8	0
Cc1ccc(C(=O)Nc2ccc(Oc3cc4cnn(C)c4cc3-c3cn[nH]c3)c(F)c2)c(=O)n1-c1ccc(F)cc1 [Merestinib]	> 1 µM	> 1 µM	0.207 µM	0.0986 µM	4.2	7.9	0	0
COc1ccc(COc2cc3oc(=O)c4cc(C(C)O)ccc4c3cc2OC)cc1 (stereo not drawn) [Palomid-529]	> 10 µM	> 10 µM	> 10 µM	> 10 µM	0	0.6	0	0
COc1cc(C)c(/C=C/C(C)=C/C=C/C(C)=C/C(=O)O)c(C)c1C [Acitretin]	> 10 µM	> 10 µM	0.0202 µM	0.103 µM	15.5	10.3	0	0
Cc1cn(-c2cc(NC(=O)c3ccc(C)c(Nc4nccc(-c5cccnc5)n4)c3)cc(C(F)(F)F)c2)cn1 [Nilotinib]	> 10 µM	> 10 µM	> 10 µM	0.983 µM	2.5	4	0	0
CCNC(=O)C[C@@H]1N=C(c2ccc(Cl)cc2)c2cc(OC)ccc2-n2c(C)nnc21	> 10 µM	> 10 µM	1.09 µM	> 10 µM	5.2	0.1	0	0
C#Cc1cccc(Nc2ncnc3cc(OCCOC)c(OCCOC)cc23)c1 [Erlotinib]	> 10 µM	> 10 µM	0.321 µM	3.54 µM	6.9	1.3	0	0
CNC(=O)c1ccc(C)c(-n2c(C)cc(OCc3ccc(F)cc3F)c(Br)c2=O)c1	> 1 µM	> 1 µM	> 1 µM	> 1 µM	1.3	0	0	0
CCNc1nc(Nc2cc(F)c(C(=O)N3CCOCC3)cc2OC)ncc1C(F)(F)F [GNE-7915]	> 1 µM	> 1 µM	0.148 µM	0.253 µM	3.3	2.9	0	0
C[C@@H]1COCCN1c1cc(C2([S@](C)(=N)=O)CC2)nc(-c2cc[nH]c3nccc2-3)n1 [AZD6738]	> 25 µM	> 25 µM	2.67 µM	3.03 µM	7.8	4.5	0	0
CCCN(CCC)C(=O)C1=Cc2ccc(-c3ccc(C(=O)N4CCCC4)cc3)cc2N=C(N)C1 [Motolimod]	> 10 µM	> 10 µM	0.937 µM	1.33 µM	4.4	3.6	0	0
COc1cccc(OCCCN)c1-c1cc(Nc2cnc(C#N)cn2)n[nH]1 [Prexasertib]	1.49 µM	0.931 µM	0.737 µM	0.365 µM	12.1	13.5	3.8	3.6
CNC(=O)c1ccccc1Nc1cc(Nc2ccc(N3CCOCC3)cc2OC)ncc1C(F)(F)F [VS-4718]	> 10 µM	> 10 µM	1.94 µM	1.6 µM	4.3	4.7	0	0
